Experimental data taken from patent USRE39634E1, “Bisarylimidazoly fatty acid amide hydrolase inhibitors” (Bristol-Myers Squibb Company, priority 2001, dated 2007).

Biological target: T1, human FAAH (Homo sapiens, UniProt O00519)
T1 construct: expressed in transfected cells; host or cells: H4 cells stably transfected with human FAAH (Geneticin selection); crude membrane homogenates
T1 sequence (O00519 1-579): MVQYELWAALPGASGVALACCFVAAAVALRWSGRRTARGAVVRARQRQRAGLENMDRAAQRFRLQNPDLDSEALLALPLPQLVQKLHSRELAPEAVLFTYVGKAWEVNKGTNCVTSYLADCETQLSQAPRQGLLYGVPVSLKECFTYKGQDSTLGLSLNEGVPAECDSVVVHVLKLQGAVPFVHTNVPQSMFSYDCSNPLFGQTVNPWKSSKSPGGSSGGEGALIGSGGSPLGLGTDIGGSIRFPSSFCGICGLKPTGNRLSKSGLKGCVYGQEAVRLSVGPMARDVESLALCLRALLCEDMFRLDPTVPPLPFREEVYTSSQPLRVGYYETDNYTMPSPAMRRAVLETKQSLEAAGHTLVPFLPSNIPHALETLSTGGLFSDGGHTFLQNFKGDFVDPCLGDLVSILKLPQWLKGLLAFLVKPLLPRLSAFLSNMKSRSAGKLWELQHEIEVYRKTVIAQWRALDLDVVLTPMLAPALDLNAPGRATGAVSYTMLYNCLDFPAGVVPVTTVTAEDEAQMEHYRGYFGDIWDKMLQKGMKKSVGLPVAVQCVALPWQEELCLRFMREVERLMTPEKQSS
Assay: Determination of FAAH activity (membrane homogenates of H4-FAAH cells, [3H]-anandamide hydrolysis)
Assay type: biochemical
Conditions: transfected human FAAH, H4-FAAH cell membranes, 10 μM anandamide, room temperature, one hour
Experimental: Homogenates of crude membranes were prepared from H4 cells that express transfected human FAAH (H4-FAAH cells). Briefly, cells were grown in DMEM supplemented with 10% FBS and Geneticin at a final concentration of 500 μg/ml (Gibco BRL, Rockville, Md.). Confluent cultures of H4-FAAH cells were rinsed twice with phosphate-buffered saline [138 mM NaCl, 4.1 mM KCl, 5.1 mM Na2PO4, 1.5 mM KH2PO4 (pH 7.5), 37° C.] and incubated for 5-10 min. at 4° C. in lysis buffer [1 mM sodium bicarbonate]. Cells were transferred from plates to polypropylene tubes (16×100 mm), homogenized and centrifuged at 32,000×g for 30 min. Pellets were resuspended by homogenization in lysis buffer and centrifuged at 32,000×g for 30 min. Pellets were resuspended in lysis buffer (15-20 μg protein/ml) then stored at −80° C. until needed. On the day of an experiment, membranes were diluted to 2.67 μg protein/ml in 125 mM Tris-Cl, pH 9.0
Activity of FAAH was measured using a modification of the method described by Omeir et al., 1995 (Life Sci 56:1999, 1995). Membrane homogenates (240 ng protein) were incubated at room temperature for one hour with 1.67 nM anandamide [ethanolamine 1-^3H] (American Radiolabeled Chemical Inc., St Louis, Mo.) and 10 μM anandamide (Sigma/RBI, St. Louis, Mo.) in the absence and presence of inhibitors. The reaction was stopped by the addition of 1 volume of a solution of methanol and dichloroethane (1:1). The mixture was shaken and then centrifuged at 1000×g for 15 min. to separate the aqueous and organic phases. An aliquot of the aqueous phase, containing [^3H]-ethanolamine was withdrawn and counted by scintillation spectroscopy. Data were expressed as the percentage of [^3H]-ethanolamine formed versus vehicle, after subtraction of the background radioactivity determined in the presence of 10 μM arachidonyl trifluoromethyl ketone (ATFMK), an inhibitor of FAAH. IC50 values were determined using a four-parameter logistic equation for dose-response curves.

| Structure (SMILES) | IC50 [nM] |
| --- | --- |
| Cc1nc(-c2ccccc2)c(-c2ccccc2)n1CCCOc1ccc(NC(=O)Oc2ccc(Cl)cc2)cc1 [Example 57, {4-[3-(2-Methyl-4,5-diphenyl-imidazol-1-yl)-propoxy]-phenyl}-carbamic acid 4-chloro-phenyl ester] | 100 to 1000 |
| Cc1nc(-c2ccccc2)c(-c2ccccc2)n1CCOc1ccc(NC(=O)Oc2ccc(F)c(F)c2)cc1 [Example 52, {4-[2-(2-Methyl-4,5-diphenyl-imidazol-1-yl)-ethoxy]-phenyl}-carbamic acid 3,4-difluoro-phenyl ester] | 1000 to 10000 |
| Cc1nc(-c2ccccc2)c(-c2ccccc2)n1CCCCCNC(=O)Oc1ccc(Cl)cc1 [Example 35, [5-(2-Methyl-4,5-diphenyl-imidazol-1-yl)-pentyl]-carbamic acid 4-chloro-phenyl ester] | 10 to 100 |
| Cc1nc(-c2ccccc2)c(-c2ccccc2)n1CCCOc1ccc(NC(=O)Oc2ccccc2)cc1 [Example 63, {4-[3-(2-Methyl-4,5-diphenyl-imidazol1-yl)-propoxy]-phenyl}-carbamic acid phenyl ester] | 1000 to 10000 |
| COc1ccccc1OC(=O)NCCCCCCn1c(C)nc(-c2ccccc2)c1-c1ccccc1 [Example 17, [6-(2-Methyl-4,5-diphenyl-imidazol-1-yl)-hexyl]-carbamic acid 2-methoxy-phenyl ester] | 100 to 1000 |
| CCOC(=O)NCCCCCCCn1c(C)nc(-c2ccccc2)c1-c1ccccc1 [Example 19, [7-(2-Methyl-4,5-diphenyl-imidazol-1-yl)-heptyl]-carbamic acid ethyl ester] | 10 to 100 |
| Cc1nc(-c2ccccc2)c(-c2ccccc2)n1CCCCCC(NC(=O)Oc1ccccc1F)c1ccccc1 (stereo not drawn) [Example 74, [6-(2-Methyl-4,5-diphenyl-imidazol-1-yl)-1-phenyl-hexyl]-carbamic acid 2-fluoro-phenyl ester] | 100 to 1000 |
| COc1ccccc1OC(=O)NCCCCCn1c(C)nc(-c2ccccc2)c1-c1ccccc1 [Example 40, [5-(2-Methyl-4,5-diphenyl-imidazol-1-yl)-pentyl]-carbamic acid 2-methoxy-phenyl ester] | 100 to 1000 |
| Cc1nc(-c2ccccc2)c(-c2ccccc2)n1CCCCCCNC(=O)Oc1ccc(F)c(F)c1 [Example 41, [6-(2-Methyl-4,5-diphenyl-imidazol-1-yl)-hexyl]-carbamic acid 3,4-difluoro-phenyl ester] | < 10 |
| COc1ccccc1OC(=O)NCCCCCCCn1c(C)nc(-c2ccccc2)c1-c1ccccc1 [Example 29, [7-(2-Methyl-4,5-diphenyl-imidazol-1-yl)-heptyl]-carbamic acid 2-methoxy-phenyl ester] | 10 to 100 |
| Cc1nc(-c2ccccc2)c(-c2ccccc2)n1CCCCCCNC(=O)O/N=C/c1ccc([N+](=O)[O-])cc1 [Example 50, 4-Nitrobenzaldehyde, O-{6-(2-methyl-4,5-diphenyl-1H-imidazol-1-yl)hexylaminocarbonyl]oxime] | 10 to 100 |
| Cc1nc(-c2ccccc2)c(-c2ccccc2)n1CCCCCCCNC(=O)Oc1ccccc1F [Example 22, [7-(2-Methyl-4,5-diphenyl-imidazol-1-yl)-heptyl]-carbamic acid 2-fluoro-phenyl ester] | < 10 |
| Cc1nc(-c2ccccc2)c(-c2ccccc2)n1CCCOc1ccc(NC(=O)Oc2cccc(Cl)c2)cc1 [Example 59, {4-[3-(2-Methyl-4,5-diphenyl-imidazol-1-yl)-propoxy]-phenyl}-carbamic acid 3-chloro-phenyl ester] | 100 to 1000 |
| Cc1nc(-c2ccccc2)c(-c2ccccc2)n1CCCCCNC(=O)Oc1ccc(F)cc1 [Example 32, [5-(2-Methyl-4,5-diphenyl-imidazol-1-yl)-pentyl]-carbamic acid 4-fluoro-phenyl ester] | 10 to 100 |
| CCOC(=O)Nc1ccc(OCCn2c(C)nc(-c3ccccc3)c2-c2ccccc2)cc1 [Example 70, {4-[2-(2-Methyl-4,5-diphenyl-imidazol-1-yl)-ethoxy]-phenyl}-carbamic acid ethyl ester] | 1000 to 10000 |
| Cc1nc(-c2ccccc2)c(-c2ccccc2)n1CCCCCC(C)NC(=O)Oc1ccccc1F (stereo not drawn) [Example 71, [1-Methyl-6-(2-methyl-4,5-diphenyl-imidazol-1-yl)-hexyl]-carbamic acid 2-fluoro-phenyl ester] | < 10 |
| CCc1nc(-c2ccccc2)c(-c2ccccc2)n1CCCCCCNC(=O)OC(C)CC (stereo not drawn) [Example 3] | 1000 to 10000 |
| CC(C)=NOC(=O)NCCCCCCn1c(C)nc(-c2ccccc2)c1-c1ccccc1 [Example 6, 2-Propanone,O-[6-(2-methyl-4,5-diphenyl-1H-imidazol-1-yl)hexylaminocarbonyl]oxime] | 10 to 100 |
| Cc1nc(-c2ccccc2)c(-c2ccccc2)n1CCOc1ccc(NC(=O)Oc2ccccc2F)cc1 [Example 61, {4-[2-(2-Methyl-4,5-diphenyl-imidazol-1-yl)-ethoxy]-phenyl}-carbamic acid 2-fluoro-phenyl ester] | 1000 to 10000 |
| Cc1nc(-c2ccccc2)c(-c2ccccc2)n1CCCOc1ccc(NC(=O)Oc2ccccc2F)cc1 [Example 66, {4-[3-(2-Methyl-4,5-diphenyl-imidazol-1-yl)-propoxy]-phenyl}-carbamic acid 2-fluoro-phenyl ester] | 1000 to 10000 |
| COC(=O)NCCCCCCn1c(C)nc(-c2ccccc2)c1-c1ccccc1 [Example 8, [6-(2-Methyl-4,5-diphenyl-imidazol-1-yl)-hexyl]-carbamic acid methyl ester] | 100 to 1000 |
| Cc1nc(-c2ccccc2)c(-c2ccccc2)n1CCCCCCNC(=O)O/N=C/c1ccc(F)cc1 [Example 47, 4-Fluorobenzaldehyde,O-[6-(2-methyl-4,5-diphenyl-1H-imidazol-1-yl)hexylaminocarbonyl]oxime] | 10 to 100 |
| Cc1nc(-c2ccccc2)c(-c2ccccc2)n1CCCCCCCNC(=O)Oc1ccccc1 [Example 20, [7-(2-Methyl-4,5-diphenyl-imidazol-1-yl)-heptyl]-carbamic acid phenyl ester] | < 10 |
| COc1ccc(OC(=O)Nc2ccc(OCCn3c(C)nc(-c4ccccc4)c3-c3ccccc3)cc2)cc1 [Example 64, {4-[2-(2-Methyl-4,5-diphenyl-imidazol-1-yl)-ethoxy]-phenyl}-carbamic acid 4-methoxy-phenyl ester] | 1000 to 10000 |
| Cc1ccccc1OC(=O)NCCCCCn1c(C)nc(-c2ccccc2)c1-c1ccccc1 [Example 37, [5-(2-Methyl-4,5-diphenyl-imidazol-1-yl)-pentyl]-carbamic acid o-tolyl ester] | 100 to 1000 |
| Cc1nc(-c2ccccc2)c(-c2ccccc2)n1CCCCCCCNC(=O)Oc1ccc(C#N)cc1 [Example 27, [7-(2-Methyl-4,5-diphenyl-imidazol-1-yl)-heptyl]-carbamic acid 4-cyano-phenyl ester] | < 10 |
| Cc1nc(-c2ccccc2)c(-c2ccccc2)n1CCCOc1ccc(NC(=O)Oc2ccc(F)c(F)c2)cc1 [Example 55, {4-[3-(2-Methyl-4,5-diphenyl-imidazol-1-yl)-propoxy]-phenyl}-carbamic acid 3,4-difluoro-phenyl ester] | 100 to 1000 |
| Cc1nc(-c2ccccc2)c(-c2ccccc2)n1CCOc1ccc(NC(=O)Oc2ccc(Cl)cc2)cc1 [Example 53, {4-[2-(2-Methyl-4,5-diphenyl-imidazol-1-yl)-ethoxy]-phenyl}-carbamic acid 4-chloro-phenyl ester] | 1000 to 10000 |
| Cc1nc(-c2ccc(F)cc2)c(-c2ccc(F)cc2)n1CCCCCCNC(=O)Oc1c(F)cccc1F [Example 44, {6-[4,5-Bis-(4-fluoro-phenyl)-2-methyl-imidazol-1-yl]-hexyl}-carbamic acid 2,6-difluoro-phenyl ester] | 10 to 100 |
| CCC(CCCCCn1c(C)nc(-c2ccccc2)c1-c1ccccc1)NC(=O)Oc1ccccc1F (stereo not drawn) [Example 72, [1-Ethyl-6-(2-methyl-4,5-diphenyl-imidazol-1-yl)-hexyl]-carbamic acid 2-fluoro-phenyl ester] | 10 to 100 |
